In patent US12583845B2, “Compositions and methods for treating diseases, disorders and conditions involving trinucleotide repeats” (The Research Foundation for the State University of New York, priority 2021, dated 2026):
“Also recorded” adds a separate entry of the source.

Assays:
[1] = system: CUG repeat RNA; assay: Circular dichroism (CD) spectroscopy with CUG repeat RNA; type: binding
[2] = system: Dmpk^480/480 mice; assay: RT-PCR splicing rescue in Dmpk480/480 DM1 mouse model (choroid plexus/CNS); type: in vivo; conditions: for RT-PCR splicing rescue of Lnf2 exon22: choroid plexus of Dmpk^480/480 mice (N=2), 10 mg/kg, FIG. 8B
Source text: (§1) New MPCs, including HM33, are being systematically designed to study bioavailability. […] Systematic modification of current MPCs (See e.g., FIGS. 5A and 5B) is used to assess the contribution of each change to bioavailability with the goal of improving BBB and other organ penetration.
(§2) Short-term Studies: To select excellent candidates for long-term studies, cohorts (N=6) of one-month old age- and gender-matched animals from both muscle (homozygous HSALR/LR or heterozygous HSAXLR) and brain (Dmpk480/480) mouse models are treated. Both transgenic (N=6) and matching wild-type (N=6) mice are treated every two days at 3 different concentrations of lead MPCs (2, 5 and 10 mg/kg) or PBS via IP injection for a period of 1 week. The 48-hour injection schedule and starting concentrations are based upon previous treatment regimens and preliminary pharmacokinetic analysis. However, the schedule or treatments is subject to change depending upon the candidate compound's history and performance in e.g., Steps 1 and 2 of FIG. 1. After 1 week of treatment, mice are tested for health (body weight, body condition score) then sacrificed, and muscle tissue (tibialis anterior, vastus lateralis, liver, kidney & brain) harvested and tested for in vivo changes in molecular (foci, splicing and MBNL1 colocalization) and histopathological features (central nuclei, HSA-based models only). To assess molecular features, frozen muscle samples are tested for: mis-splicing changes (RT-PCR and RNAseq); transgene and endogenous DMPK expression (qRT-PCR); off-target effects (RNAseq); RNA foci (FISH); MBNL1 colocalization (FISH/IF); CLCN1 staining (IF); and central nuclei (H&E). Frozen muscle and brain samples from each mouse model are analyzed by UPLC-MS/MS to determine preliminary bioavailability, which is correlated with molecular activity (muscle only for HSA-based and brain only for DMPK480/480) to assess therapeutic potential.

[3] = system: DM2 fibroblasts; assay: RT-PCR analysis of INSR exon 11 mis-splicing in DM2 fibroblasts; type: cell-based, human; conditions: FIG. 2B
Procedure: (§3) FIG. 2A presents the chemical structures of furamidine, HM19A and HM19B. […] (ANOVA two-tailed test, *p<0.05 and **p<0.01).
(§4) DM splicing panel analysis: MPCs are evaluated starting with HM19A &19B in control and DM cells using a 5-point dose-response treatment. Data from the characterization of multiple DM1 & DM2 fibroblast supports this splicing panel and the utility of fibroblasts as a screening tool (See FIGS. 7A-E).

[4] = system: DM1 myoblasts; assay: RT-PCR analysis of mis-splicing events in DM1 myoblasts; type: cell-based, human; conditions: nanomolar concentrations, FIG. 2D
Source text: as §3

[5] = system: DM1 and DM2 cell lines; assay: Splicing rescue and toxicity in DM1 and DM2 patient-derived cell lines; type: cell-based, human; conditions: DM fibroblasts and myotubes; nanomolar range where stated
Source text: Referring to FIG. 1, Step 2, a process flow includes characterizing the best-in-class MPCs for in cellulo activity and therapeutic potential. Rationale and preliminary data: Because of the multisystemic nature of pathogenesis in myotonic dystrophy, it is desirable to evaluate the therapeutic potential of excellent MPCs in multiple DM cellular models as well as in control models in order to best prioritize compounds for in vivo testing. The cellular activity of MPC lead panel is systematically evaluated starting with HM19A & HM19B in 2 independent DM1 and DM2 patient-derived fibroblast lines and 2 independent DM1 myoblast/myotube differentiation models along with age and gender-matched control cell lines. Potential blood brain barrier penetrance is evaluated using the established MDR1-MDCK monolayer assay. This aim will facilitate the informed selection of the top performing compounds in cellular studies for testing in animal models of DM (See e.g., FIG. 1, step 3).
as §4

[6] = system: DM1 fibroblasts; assay: RT-PCR analysis of INSR exon 11 mis-splicing in DM1 fibroblasts; type: cell-based, human; conditions: FIG. 2B
Procedure: as §3, §4

[7] = system: HSA^LR/LR mice; assay: RT-PCR splicing rescue in HSALR/LR DM1 mouse model (muscle); type: in vivo; conditions: for rescue of mis-splicing (DM1 splicing) in HSALR mice: HSALR mouse model; for RT-PCR splicing rescue of Atp2a1 exon 22: TA muscle of HSA^LR/LR mice (N=2), 7 days, FIG. 8A
Source text: as §1
as §2, with “The” for “Short-term Studies: To select excellent candidates for long-term studies, cohorts (N=6) of one-month old age- and gender-matched animals from both muscle (homozygous HSALR/LR or heterozygous HSAXLR) and brain (Dmpk480/480) mouse models are treated. Both transgenic (N=6) and matching wild-type (N=6) mice are treated every two days at 3 different concentrations of lead MPCs (2, 5 and 10 mg/kg) or PBS via IP injection for a period of 1 week. The”

[8] = system: DM1 fibroblast; assay: MTT cell viability in DM1 fibroblast; type: cell-based, human; conditions: for MTT cell viability: DM1 fibroblast, low micromolar concentrations, FIG. 2C
Procedure: as §3
Effects on cellular health: To monitor the overall health of cells, treated vs. untreated control and DM patient fibroblast and myoblast/myotube lines are tested across a dose range where one observes a reduction in toxic CUG/CCUG RNA levels and rescue of mis-splicing. Cell health is monitored using the lactate dehydrogenase (LDH) and methylthiazol tetrazolium (MTT) assays, to measure membrane integrity (cell death) and metabolic activity (cell viability), along with monitoring rates of cell growth. Mutagenicity is assessed using the Ames test. Alterations in cell death, cell viability and rates of cell growth and mutagenicity is combined with data from control cells to determine the overall effect on cell health due to MPC treatment. As shown in FIGS. 2A-2E, HM19B rescues splicing at more than 50-fold lower concentrations than at concentrations where cell death is starting to be observed.

[9] = system: patient-derived myotubes; assay: DM1 splicing rescue in patient-derived myotubes; type: cell-based, human

SMILES	interaction with CUG repeat RNA by CD spectroscopy [1]	rescue in the CNS compared to DB829 ([2]; Dmpk^480/480 mice, FIG. 8C)	RT-PCR splicing rescue of Lnf2 exon22 [2]	rescue in the Dmpk480/480 mice ([2]; early preliminary data)	rescue of INSR exon 11 mis-splicing [3]	rescue of MBNL1 exon 5 mis-splicing [4]	rescue of MBNL2 exon 5 mis-splicing [4]	splicing rescue in patient-derived cell lines [5]	rescue of INSR exon 11 mis-splicing [6]	rescue of mis-splicing (DM1 splicing) in HSALR mice [7]	RT-PCR splicing rescue of Atp2a1 exon 22 [7]	MTT cell viability [8]	concentration margin between splicing rescue and concentrations where cell death is starting to be observed ([8]; FIGS. 2A-2E)	rescue of DM1 splicing [9]
CN1CCN(c2ccc3nc(-c4ccc(-c5ccc6c(c5)oc5cc(-c7ccc(-c8nc9ccc(N%10CCN(C)CC%10)cc9[nH]8)cc7)ccc56)cc4)[nH]c3c2)CC1 [HM19B]	surface interaction between ligand and substrate	reduced rescue	splicing rescue	capable of rescue	strong rescue	promising rescue	promising rescue	splicing rescue at the nanomolar concentration; also recorded: significantly rescuing mis-splicing	strong rescue	significantly rescuing mis-splicing	splicing rescue	no effect on viability	more than 50 fold	
c1ccc2[nH]c(-c3ccc(-c4ccc(-c5ccc(-c6nc7ccccc7[nH]6)cc5)o4)cc3)nc2c1 [HM19A]					strong rescue			significantly rescuing mis-splicing	strong rescue	significantly rescuing mis-splicing	splicing rescue	no effect on viability		
N=C(N)c1ccc(-c2ccc(-c3ccc(C(=N)N)cn3)o2)nc1 [DB829, reference compound]			splicing rescue											
COc1cc2c(c(OC)c1OC)-c1ccc(OC)c(=O)cc1[C@@H](NC(C)=O)CC2 [colchicine]														rescue DM1 splicing
